Data from PMC9698483, “Berbamine Reduces Chloroquine-Induced Itch in Mice through Inhibition of MrgprX1” (International Journal of Molecular Sciences, 2022).

Experiments:
[1] = target: T1, histamine H4 receptor (H4R) (Homo sapiens, UniProt Q9H3N8); assay: Histamine-induced activation of H4R in H4R-expressing HEK293T cells (calcium); type: cell-based; conditions: 30 μM compound, 10 min prior to 100 μM histamine
T1 construct: expressed in transfected cells; host or cells: HEK293T
Procedure: (§1) To investigate the effect of berbamine on other pruritogenic GPCRs, we observed the effect of berbamine on histamine H1 receptor (H1R), histamine H4 receptor (H4R), MrgprC11, MrgprX4, PAR2, and TGR5.
(§2) Figure 3 Effects of berbamine on the activity of other pruritogenic GPCRs: (A,B) Effect of berbamine on histamine 1 receptor (H1R) and histamine 4 receptor (H4R). H1R- and H4R-expressing HEK293T cells were pretreated with 30 μM BBM for 10 min prior to 100 μM histamine treatment. […] (C) Effect of berbamine on PAR2. HT29 cells were pretreated with BBM for 10 min prior to 30 μM PAR2-AP treatment. […] (D) Effect of berbamine on MrgprC11. MrgprC11-expressing HEK293T cells were pretreated with BBM for 10 min prior to 100 μM […] treatment. (E) Effect of berbamine on MrgprX4. MrgprX4-expressing HEK293T cells were pretreated with BBM for 10 min prior to 80 μM DCA treatment. (F) Effect of berbamine on TGR5. TGR5 activity was measured using a YFP fluorescence quenching assay. CHO-K1 cells coexpressing TGR5 and a halide sensor YFP were pretreated with BBM and 80 μM DCA for 10 min prior to I^- treatment. Results were summarized as means ± S.E. (n = 6). NTC, nontransfected cells.
(§3) Intracellular calcium levels were measured using a Fluo-4 NW calcium assay kit (Invitrogen, Carlsbad, CA) as per the manufacturer’s protocol in HEK293T and HT29 cells. […]

MrgprC11 = target: T2, MrgprC11 (Mus musculus, UniProt Q8CIP3); assay: Activation of MrgprC11 in MrgprC11-expressing HEK293T cells (calcium); type: cell-based
T2 construct: expressed in transfected cells; host or cells: HEK293T
T2 sequence (Q8CIP3 1-322): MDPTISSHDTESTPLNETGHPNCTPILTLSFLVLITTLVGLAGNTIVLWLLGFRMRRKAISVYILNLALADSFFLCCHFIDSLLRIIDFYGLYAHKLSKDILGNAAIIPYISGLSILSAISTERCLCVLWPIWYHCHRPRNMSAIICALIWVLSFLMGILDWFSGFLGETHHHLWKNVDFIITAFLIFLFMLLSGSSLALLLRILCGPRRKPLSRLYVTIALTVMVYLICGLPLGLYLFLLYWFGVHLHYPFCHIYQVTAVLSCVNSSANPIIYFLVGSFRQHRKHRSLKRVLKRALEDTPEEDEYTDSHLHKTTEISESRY
Procedure: as §1, §2, §3

[2] = tested on: ERK1/2 phosphorylation through MrgprA3; assay: Immunoblot of ERK1/2 phosphorylation in HEK293T cells expressing MrgprA3; type: cell-based, mouse; conditions: HEK-MrgprA3 cells, 30 μM BBM for 10 min prior to CQ
[3] = target: T3, histamine H1 receptor (H1R) (Homo sapiens, UniProt P35367); assay: Histamine-induced activation of H1R in H1R-expressing HEK293T cells (calcium); type: cell-based; conditions: 30 μM compound, 10 min prior to 100 μM histamine
T3 construct: expressed in transfected cells; host or cells: HEK293T
T3 sequence (P35367 whole entry, species assumed): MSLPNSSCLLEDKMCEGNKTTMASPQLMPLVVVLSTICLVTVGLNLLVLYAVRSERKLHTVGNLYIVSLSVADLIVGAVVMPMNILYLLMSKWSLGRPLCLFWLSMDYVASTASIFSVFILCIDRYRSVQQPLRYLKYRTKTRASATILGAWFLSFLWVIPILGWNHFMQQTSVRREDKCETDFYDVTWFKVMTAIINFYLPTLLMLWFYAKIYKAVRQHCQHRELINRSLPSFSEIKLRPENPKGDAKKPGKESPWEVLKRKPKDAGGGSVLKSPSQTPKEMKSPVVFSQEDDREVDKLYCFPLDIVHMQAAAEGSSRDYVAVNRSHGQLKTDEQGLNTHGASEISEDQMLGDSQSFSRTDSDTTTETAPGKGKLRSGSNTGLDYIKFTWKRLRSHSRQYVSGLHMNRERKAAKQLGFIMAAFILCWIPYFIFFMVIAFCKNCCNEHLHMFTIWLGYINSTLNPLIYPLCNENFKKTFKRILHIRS
Procedure: as §1, §2, §3

[4] = tested on: CQ-resistant strain of P. falciparum; design: method as in doi:10.1002/ddr.430300405; conditions: in vitro, compound alone; read-out: IC50 antimalaria effect, CQ-resistant strain; cited from earlier work
TGR5 = target: T4, TGR5 (Homo sapiens, UniProt Q8TDU6); assay: TGR5 activity by YFP fluorescence quenching assay in CHO-K1 cells; type: cell-based; conditions: 30 μM with 80 μM DCA for 10 min
T4 construct: expressed in transfected cells; host or cells: CHO-K1
T4 sequence (Q8TDU6 1-330): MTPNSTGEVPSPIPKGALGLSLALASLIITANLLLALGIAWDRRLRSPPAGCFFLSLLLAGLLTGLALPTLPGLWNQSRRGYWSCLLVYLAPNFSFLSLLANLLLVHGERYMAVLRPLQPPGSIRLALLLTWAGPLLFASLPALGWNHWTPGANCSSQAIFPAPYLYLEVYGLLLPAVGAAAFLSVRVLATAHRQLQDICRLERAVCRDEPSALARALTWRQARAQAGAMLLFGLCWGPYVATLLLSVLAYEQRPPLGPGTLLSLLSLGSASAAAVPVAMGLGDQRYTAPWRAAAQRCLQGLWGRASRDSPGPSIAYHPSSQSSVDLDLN
Procedure: as §2
All modulators were dissolved in DMSO, and cells were treated with a final concentration of 1% DMSO.

HEK293T cells = assay: Ionomycin-induced increase in intracellular calcium levels in HEK293T cells; type: cell-based; conditions: 10 μM ionomycin, 10 min pretreatment
Procedure: To investigate whether berbamine and closantel affect calcium signaling pathways, we observed the effects of berbamine and closantel on CQ- and ionomycin-induced increases in intracellular calcium concentrations in HEK-MrgprX1 and HEK293T cells, respectively.
Figure 2 Effect of berbamine and closantel on CQ- and ionomycin-induced increases in intracellular calcium levels: (A,B) Intracellular calcium levels were measured using Fluo−4 NW in HEK293T cells expressing MrgprX1. The cells were pretreated with the indicated concentrations of berbamine (BBM) and closantel (CLS) for 10 min prior to treatment with 300 μM CQ. (C) Summary of dose-response (mean ± S.E., n = 6). (D,E) Intracellular calcium levels were increased with 10 μM ionomycin in HEK239T cells. The cells were pretreated with the indicated concentrations of BBM and CLS for 10 min before treatment with ionomycin. (F) Summary of dose–response (mean ± S.E., n = 6).
Intracellular calcium levels were measured using a Fluo-4 NW calcium assay kit (Invitrogen, Carlsbad, CA) as per the manufacturer’s protocol in HEK293T and HT29 cells. […] After 1 h of incubation, Fluo-4 fluorescence was recorded with a FLUOstar Omega microplate reader equipped with syringe pumps and custom Fluo-4 excitation/emission filters (485/538 nm). […]

T1 sequence (Q9H3N8 whole entry, species assumed): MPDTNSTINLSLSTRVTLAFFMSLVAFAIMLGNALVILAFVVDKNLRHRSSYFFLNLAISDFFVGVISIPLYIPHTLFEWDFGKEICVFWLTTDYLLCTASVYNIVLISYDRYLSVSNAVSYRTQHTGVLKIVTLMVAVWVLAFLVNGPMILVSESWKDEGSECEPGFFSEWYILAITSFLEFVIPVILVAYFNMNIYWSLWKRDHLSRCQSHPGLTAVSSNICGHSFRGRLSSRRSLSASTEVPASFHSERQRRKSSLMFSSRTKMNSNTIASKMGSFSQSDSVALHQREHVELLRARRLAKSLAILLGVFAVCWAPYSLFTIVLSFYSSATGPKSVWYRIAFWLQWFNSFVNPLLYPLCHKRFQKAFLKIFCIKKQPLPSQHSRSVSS

For `COc1cc2c3cc1Oc1c(OC)c(OC)cc4c1[C@@H](Cc1ccc(O)c(c1)Oc1ccc(cc1)C[C@@H]3N(C)CC2)N(C)CC4` [berbamine], the “effect on histamine-induced activation of H4R” value [1] was “did not affect”, the “effect on PAR2-AP-induced activation of MrgprC11” value (MrgprC11; 30 μM, 10 min prior to 100 μM PAR2-AP) was “did not affect” and the “inhibitory effect on the activation of MrgprC11 by BAM8-22” value (MrgprC11; concentrations up to 30 μM, 500 nM BAM8-22) was “minimal inhibitory effect”. The “effect on CQ-induced ERK1/2 phosphorylation through MrgprA3” value [2] was “significantly reduced”, the “effect on histamine-induced activation of H1R” value [3] was “did not affect” and the IC50 [4] was 359 ± 9 nM. For the same molecule, the “effect on DCA-induced activation of TGR5” value (TGR5) was “did not alter” and the “effect on ionomycin-induced increase in intracellular calcium levels” value (HEK293T cells) was “no effect”.
